Source: ChEMBL document CHEMBL4130426, “Namalides B and C and Spumigins K-N from the Cultured Freshwater Cyanobacterium Sphaerospermopsis torques-reginae” (J Nat Prod, 2017)
The source made the active and inactive calls. No cut-off for these calls is given here.

Legend:
Prothrombin [1] = target: T1, Prothrombin (Homo sapiens, UniProt P00734); experiment: Inhibition of thrombin (unknown origin) using N-benzoyl-Phe-Val-Arg-p-nitroanilide hydrochloride as substrate pretreated for 5 mins followed by substrate addition measured after 30 mins by colorimetric method
Prothrombin [2] = target: T1, Prothrombin; experiment: Inhibition of thrombin (unknown origin) up to 150 to 350 uM using N-benzoyl-Phe-Val-Arg-p-nitroanilide hydrochloride as substrate pretreated for 5 mins followed by substrate addition measured after 30 mins by colorimetric method
Carboxypeptidase A1 = target: T2, Carboxypeptidase A1 (Bos taurus, UniProt P00730); experiment: Inhibition of bovine pancreas carboxypeptidase A using N-4-(methoxyphenylazoformyl)-Phe-OH as substrate measured after 5 mins by colorimetric method
T2 sequence (P00730 whole entry): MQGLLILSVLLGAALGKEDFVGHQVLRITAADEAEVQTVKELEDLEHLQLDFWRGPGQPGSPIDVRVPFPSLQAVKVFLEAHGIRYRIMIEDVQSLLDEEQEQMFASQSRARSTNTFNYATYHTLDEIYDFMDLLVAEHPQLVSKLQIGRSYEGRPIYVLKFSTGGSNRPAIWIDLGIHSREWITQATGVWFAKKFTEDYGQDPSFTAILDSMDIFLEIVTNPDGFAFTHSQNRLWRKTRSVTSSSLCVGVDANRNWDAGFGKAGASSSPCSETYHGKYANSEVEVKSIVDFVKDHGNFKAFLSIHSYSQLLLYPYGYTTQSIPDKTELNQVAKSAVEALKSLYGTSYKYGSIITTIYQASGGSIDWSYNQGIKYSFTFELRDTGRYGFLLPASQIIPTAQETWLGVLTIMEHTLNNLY

[3] = target: T3, Chymotrypsin-C (Homo sapiens) (UniProt Q99895); experiment: Inhibition of human pancreas chymotrypsin C up to 0.78 mM using N-succinyl-Ala-Ala-Pro-Phe p-nitroanilide as substrate pretreated for 5 mins followed by substrate addition measured after 30 mins by colorimetric method
T3 sequence (whole entry): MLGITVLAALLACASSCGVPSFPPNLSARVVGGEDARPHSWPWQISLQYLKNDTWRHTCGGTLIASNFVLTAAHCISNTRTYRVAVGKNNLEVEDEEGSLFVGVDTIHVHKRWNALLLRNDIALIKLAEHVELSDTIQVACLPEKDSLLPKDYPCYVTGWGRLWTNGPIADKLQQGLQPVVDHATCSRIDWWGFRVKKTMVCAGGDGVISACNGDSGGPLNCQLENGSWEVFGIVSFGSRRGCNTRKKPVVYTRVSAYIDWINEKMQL

Structure (SMILES)	IC50 (Prothrombin [1]) [µM]	inhibition (Prothrombin [2])	IC50 (Carboxypeptidase A1) [nM]	inhibition [3]
N=C(N)NCCC[C@H](CO)NC(=O)[C@@H]1CCCN1C(=O)[C@@H](Cc1ccc(O)cc1)NC(=O)C(O)CCc1ccc(O)cc1 (stereo partly drawn)	250			
CC1C[C@@H](C(=O)N[C@H](CO)CCCNC(=N)N)N(C(=O)[C@@H](Cc2ccc(O)cc2)NC(=O)C(O)CCc2ccc(O)cc2)C1 (stereo partly drawn)		inactive		
N=C(N)NCCC[C@@H](CO)NC(=O)[C@@H]1CCCN1C(=O)[C@@H](Cc1ccc(O)cc1)NC(=O)C(O)CCc1ccc(O)cc1 (stereo partly drawn)	250			
CC1C[C@@H](C(=O)N[C@@H](CO)CCCNC(=N)N)N(C(=O)[C@@H](Cc2ccc(O)cc2)NC(=O)C(O)CCc2ccc(O)cc2)C1 (stereo partly drawn)		inactive		

Results, then the compound that gave them:

IC50 (Prothrombin [1]) [µM]	inhibition (Prothrombin [2])	IC50 (Carboxypeptidase A1) [nM]	inhibition [3]	Structure (SMILES)
		2000	inactive	CC[C@@H](C)[C@H](NC(=O)N[C@@H]1CCCCNC(=O)[C@H](CCc2ccc(O)cc2)NC(=O)[C@H](C(C)C)NC1=O)C(=O)O
		750	inactive	CC[C@@H](C)[C@H](NC(=O)N[C@@H]1CCCCNC(=O)[C@H](CCc2ccc(O)cc2)NC(=O)[C@H]([C@H](C)CC)NC1=O)C(=O)O
